These results are taken from patent US20220306623A1, “PYRIDYL OR PYRIMIDYL MTOR KINASE INHIBITORS” (GLAXOSMITHKLINE INTELLECTUAL PROPERTY DEVELOPMENT LIMITED, priority 2019, published 2022).

Experiment [1] relates to type I collagen deposition in primary lung fibroblasts derived from human tissue. As to the kind of experiment: Type I collagen deposition (scar-in-a-jar) high content screening assay. It counts as cell-based. The settings on record: Primary lung fibroblast, 72 h, human pulmonary fibroblasts, 96-well, TGFβ-1 1 ng/ml 72 h, collagen intensity, read-out: mean pIC50, type I collagen deposition (scar-in-a-jar) (converted). The procedure: Cellular type I collagen deposition was measured by adapting a published method; scar-in-a-jar (Chen et al., 2009) to primary lung fibroblasts derived from human tissue and combining with high content analysis to permit fluorescent quantification of collagen deposited in the extracellular matrix (ECM). The human biological samples were sourced ethically and their research use was in accord with the terms of the informed consents under an IRB/EC approved protocol. Human pulmonary fibroblasts were maintained in DMEM media (Gibco, Catalogue No 21969) supplemented with 4 mM L-glutamine (Gibco Catalogue No 25030-024) and 100/heat inactivated FBS (Gibco #10270-106, Lot #42F6663K) at 37° C. in 10%/CO2. Cells were harvested and seeded at 10,000 cells per well (85 μL/well) into black walled 96 well imaging plates (BD Falcon, 353219) in assay media (0.4%/heat inactivated FBS, 4 mM L-glutamine) and incubated overnight at 37° C., 10%/CO2.
Test compounds were dissolved in 1000/DMSO to give 10 mM stocks which were further diluted (serial 1:3) to generate 10 point concentration response curves. Assay media was supplemented with 112.5 mg/ml Ficoll 70 (Sigma, Catalogue No F2878), 75 mg/ml Ficoll 400 (Sigma, Catalogue No F4375) and 50 µg/ml ascorbic acid (Sigma, Catalogue No A8960). 3 μL compound were added to 297 μL assay media (10× compound final concentration in 1% DMSO).
Diluted compounds (15 μL) were transferred to plates containing cells and incubated for 3 h at 37° C. in 10% CO2. Transforming growth factor (TGF)β-1 (R&D Systems, Catalogue No 100-B/CF) was reconstituted according to manufacturer's instructions to give 10 µg/mL (stock) and further diluted (1 in 3333) in assay media containing Ficoll and ascorbic acid. 50 μL TGFβ-1 was added to cell plates (1 ng/ml final) and cells incubated for 72 h at 37° C. in 10% CO2.
Media was removed and cells were fixed with 50 µL/well 100% ice-cold methanol (2 min). Methanol was decanted and cells washed with PBS (3×). To permeabilise, cells were incubated with PBS containing 0.1% Triton X 100 for 90 sec, followed by PBS wash (3×). Cells were incubated with mouse anti human type I collagen monoclonal antibody (Sigma, Catalogue No C2456) diluted 1:1000 in PBS overnight at 4° C. Cells were washed with PBS containing 0.05% Tween-20 (3×) and incubated with secondary alexa fluor 488 goat-anti-mouse antibody (Invitrogen, Catalogue No A11001, 1 in 500 in PBS) and Hoechst 33342 (Sigma, Catalogue No H21492), 1 in 10000 in PBS) for 1 h at RT, prior to washing with PBS containing 0.05% Tween (×3) before finally adding 200 µL/well PBS.
Type I collagen immunoreactivity was detected using the Thermofisher CellInsight NXT set to excitation and emission wavelengths for DAPI and FITC with exposure adjusted to appropriate levels. Images were analysed using Cellomics Studio software (Version 6.6.0, build 8153) and computational algorithms to quantify “collagen intensity” and “cell count”.
Data analysis was performed by determining % response values for test compounds relative to the maximum (TGFβ-1 stimulation) fitting a ‘log(inhibitor) vs. response-Variable slope (four parameters)’ curve and recording pIC50 (inverse of Log IC50) values for test compounds.

For experiment [2], the system named is phosphorylated Akt at serine 473 (pAKTs473) in primary lung fibroblasts derived from explanted tissue. As to the kind of experiment: Phosphorylated Akt (Ser473) in vitro immunoassay (MSD), fibroblasts from explanted tissue. The format is cell-based. Conditions: Homo sapiens, Primary lung fibroblast, 96-well, compound 2 h, PDGF-BB 10 ng/ml 15 min, read-out: mean pIC50, pAKTs473 immunoassay (converted). An excerpt:
Immunoassay using the Meso Scale Discovery (MSD) platform to measure the effect of test compounds on phosphorylated Akt at serine 473 (pAKTs473) in primary lung fibroblasts derived from explanted tissue. The human biological samples were sourced ethically and their research use was in accord with the terms of the informed consents under an IRB/EC approved protocol.
Human lung fibroblasts were routinely maintained in Dulbecco's Modified Eagle Medium (DMEM; Gibco, catalogue no. 21969-035) supplemented with 10% foetal bovine serum (FBS (heat-inactivated); Gibco, catalogue no. 10270-106) and 4 mM L-glutamine (Gibco, catalogue no. 25030024) at 37° C. in 10% CO2.
For the assay, cells were harvested using Trypsin/EDTA (Gibco, catalogue no. 25300-062), resuspended to give 1.2×10^5 cells/ml and 100 ul/well seeded into 96-well plates (Corning, Catalogue No. 3596) in DMEM supplemented with 0.4% FCS and 4 mM L-glutamine and incubated overnight at 37° C. in 10% CO2.
Test compounds were dissolved in 100% DMSO to give 10 mM stock solutions and serially diluted to generate a 10-point concentration response curve. Compounds were further diluted 100-fold into 96-well V-bottom polypropylene plates (Greiner, Catalogue no. 651201) with DMEM supplemented with 0.4% FCS and 4 mM L-glutamine to give 100 µM top compound concentration in 1% DMSO.
Compounds were further diluted 10-fold by transfer to 96-well plates containing cells ([…] top concentration, 0.1% DMSO final) and incubated for 2 h at 37° C. in 10% CO2, prior to stimulation with platelet-derived growth factor (PDGF)-BB (Gibco, Catalogue no. PHG0041) at 10 ng/ml (final) for 15 min at 37° C. in 10% CO2. Cell assay plates were then incubated on ice and treated with lysis buffer (Cell Signalling Technology, Catalogue No. 9803) containing protease and phosphatase inhibitors (Halt, Thermo Scientific, Catalogue No. 78444) for 30 min.
MSD plates (MSD, Phospho(Ser473)/Total Akt Whole Cell Lysate Kit, Catalogue No. K15100D-3) were blocked with 1×blocking buffer as per the manufacturer's instructions at RT with shaking, followed by washing (×3) with Tris-buffered saline containing 0.05% Tween-20 (TBST). Cell lysates (30 ul) were added and MSD plates incubated for 1 h at RT with shaking.
Plates were washed with TBST (×3), prior to addition of SULFO-TAG Anti-Total Akt Antibody as per the manufacturer's instructions and shaken at RT for 1 h. After washing with 1×TBST (×3), read buffer (1×) (MSD, Catalogue No. R92TC-1) was added as per the manufacturer's instructions before detecting electrochemiluminescence (MSD Sector Imager 600).
Data analysis was performed using non-linear regression analysis to determine IC50 values for test compounds. Minimum (no PDGF-BB stimulation) and maximum responses (+PDGF-BB stimulation) were monitored for assay quality control.

`CC[C@H]1COCCN1c1cc(CS(=O)(=O)N(CC)CC)nc(-c2ccc3[nH]c(CNC)cc3n2)n1` [Example 30, (S)—N,N-diethyl-1-(6-(3-ethylmorpholino)-2-(2-((methylamino)methyl)-1H-pyrrolo[3,2-b]pyridin-5-yl)pyrimidin-4-yl)methanesulfonamide]: the IC50 in experiment [1] is < 3.98 µM.
On to `CCCS(=O)(=O)Cc1cc(N2CCOC[C@@H]2CC)nc(-c2ccc3[nH]c(CNC)cc3n2)n1` [Example 32, (S)-1-(5-(4-(3-ethylmorpholino)-6-((propylsulfonyl)methyl)pyrimidin-2-yl)-1H-pyrrolo[3,2-b]pyridin-2-yl)-N-methylmethanamine], for which the IC50 in experiment [1] is < 3.98 µM; in experiment [2], < 0.1 µM.
Regarding `CC[C@H]1COCCN1c1cc(CS(=O)(=O)CC)nc(-c2ccc3[nH]c(CNC)cc3n2)n1` [Example 33, (S)-1-(5-(4-(3-ethylmorpholino)-6-((ethylsulfonyl)methyl)pyrimidin-2-yl)-1H-pyrrolo[3,2-b]pyridin-2-yl)-N-methylmethanamine], the IC50 in experiment [1] was < 3.98 µM.
